Results reported in US20260297042A1, “BIARYLAMIDE DERIVATIVES AND THEIR USE AS PKMYT1 INHIBITORS” (CANCER RESEARCH TECHNOLOGY LIMITED, priority 2023, published 2026).
Where a name gives a salt, the structure may show the parent alone.

Legend:
[1] = molecular target: T1, Human PKMYT1 (Homo sapiens, UniProt Q99640); experiment: PKMYT1 biochemical ADP-Glo enzymatic assay; settings: PKMYT1 kinase domain 15 nM; ADP-Glo; banded values
T1 construct: Human PKMYT1 75-362 was cloned as a TEV cleavable 6xHis fusion; 6xHis (TEV cleavable) (cleaved yes); made in house; host or cells: bacterial cells
T1 sequence (Q99640 75-362): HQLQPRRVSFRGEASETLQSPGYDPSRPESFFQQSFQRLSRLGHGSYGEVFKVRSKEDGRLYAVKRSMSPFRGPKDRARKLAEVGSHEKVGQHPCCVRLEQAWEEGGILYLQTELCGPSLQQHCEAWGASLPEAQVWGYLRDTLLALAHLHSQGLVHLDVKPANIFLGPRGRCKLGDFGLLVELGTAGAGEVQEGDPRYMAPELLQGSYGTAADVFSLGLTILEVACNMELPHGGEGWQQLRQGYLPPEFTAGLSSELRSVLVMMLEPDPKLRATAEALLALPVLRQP
Summary of the method: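 IC50 values come from 10-point 3-fold series, with replicates required within 3-fold and r2 >0.9. ADP formed by PKMYT1 intrinsic ATPase (500 uM ATP, 60 min, 26° C.) was quantified by ADP-Glo luminescence. The enzyme was the TEV-cleaved kinase domain 75-362 at 15 nM, in HEPES pH 7.5 buffer.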

[2] = molecular target: T2, WEE1 (Homo sapiens, UniProt P30291); experiment: Selectivity versus WEE1 assay (ADP-Glo enzymatic assay); type: biochemical; settings: for IC50: WEE1 15 nM, ADP-Glo, banded values; for PKMYT1 vs. WEE1 selectivity: fold difference in selectivity for PKMYT1 over WEE1, banded
T2 construct: purchased Thermo Fisher PR7373A
Summary of the method: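 ADP-Glo luminescent read-out after a 60-min, 26 °C kinase reaction of 15 nM WEE1 with 30 µM ATP, in HEPES pH 7.5 buffer containing MgCl2, EGTA, Brij-35 and 1% DMSO. IC50 accepted only when replicate values agree within 3-fold and curve fit r2 exceeds 0.9.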

[3] = tested on: OVCAR 3 cells; experiment: Cancer cell line proliferation assay, ATP-based cell viability (Cell Titre Glow), OVCAR 3 (CCNE1-amplified); settings: KYSE30 (normal CCNE1) GI50 vs. OVCAR 3 (CCNE1-amplified) GI50
Summary of the method: (§1)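 GI50 values, the concentrations halving cell growth, were derived from ATP-based luminescence (Cell Titre Glo) after PKMYT1 inhibitor exposure. Cells tested were OVCAR 3, an ovarian line with amplified CCNE1, and KYSE-30, which has normal CCNE1.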

[4] = tested on: KYSE-30 cells; experiment: Cancer cell line proliferation assay, ATP-based cell viability (Cell Titre Glow), KYSE-30 (normal CCNE1); settings: Homo sapiens, KYSE-30 cells (normal CCNE1), concentration that achieves 50% cell growth proliferation inhibition, read-out: KYSE30 Gl50
Summary of the method: as §1

[5] = molecular target: T3, Cellular PKMYT1 Biomarker CDK1 pT14 (Homo sapiens, UniProt Q99640); experiment: Inhibition of cellular PKMYT1 biomarker CDK1 pT14 in OVCAR 3 cells (immunoblot); type: cell-based; settings: 20 hours incubation
T3 construct: read-out CDK1 phospho-T14 immunoblot
T3 sequence (Q99640 1-499): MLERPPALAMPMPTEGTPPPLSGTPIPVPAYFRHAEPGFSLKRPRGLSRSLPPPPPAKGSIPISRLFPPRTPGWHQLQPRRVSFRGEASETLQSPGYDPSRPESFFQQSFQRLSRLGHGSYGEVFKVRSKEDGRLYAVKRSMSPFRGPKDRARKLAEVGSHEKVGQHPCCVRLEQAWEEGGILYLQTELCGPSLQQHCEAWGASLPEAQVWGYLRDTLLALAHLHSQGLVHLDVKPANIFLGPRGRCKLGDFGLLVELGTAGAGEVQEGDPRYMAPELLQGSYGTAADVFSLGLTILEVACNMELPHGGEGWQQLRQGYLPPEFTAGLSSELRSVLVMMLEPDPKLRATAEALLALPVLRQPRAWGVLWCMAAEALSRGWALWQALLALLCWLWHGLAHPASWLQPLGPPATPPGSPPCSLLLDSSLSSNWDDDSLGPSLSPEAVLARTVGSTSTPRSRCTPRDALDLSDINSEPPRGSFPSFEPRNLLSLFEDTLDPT
Summary of the method: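 Confluent OVCAR 3 cells treated with a compound concentration range for 20 h at 37 °C. Lysates analysed by automated capillary immunoblot for CDK1 phospho-T14, with vinculin, fluorescence detection; IC50 by regression.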

T2 sequence (P30291 whole entry): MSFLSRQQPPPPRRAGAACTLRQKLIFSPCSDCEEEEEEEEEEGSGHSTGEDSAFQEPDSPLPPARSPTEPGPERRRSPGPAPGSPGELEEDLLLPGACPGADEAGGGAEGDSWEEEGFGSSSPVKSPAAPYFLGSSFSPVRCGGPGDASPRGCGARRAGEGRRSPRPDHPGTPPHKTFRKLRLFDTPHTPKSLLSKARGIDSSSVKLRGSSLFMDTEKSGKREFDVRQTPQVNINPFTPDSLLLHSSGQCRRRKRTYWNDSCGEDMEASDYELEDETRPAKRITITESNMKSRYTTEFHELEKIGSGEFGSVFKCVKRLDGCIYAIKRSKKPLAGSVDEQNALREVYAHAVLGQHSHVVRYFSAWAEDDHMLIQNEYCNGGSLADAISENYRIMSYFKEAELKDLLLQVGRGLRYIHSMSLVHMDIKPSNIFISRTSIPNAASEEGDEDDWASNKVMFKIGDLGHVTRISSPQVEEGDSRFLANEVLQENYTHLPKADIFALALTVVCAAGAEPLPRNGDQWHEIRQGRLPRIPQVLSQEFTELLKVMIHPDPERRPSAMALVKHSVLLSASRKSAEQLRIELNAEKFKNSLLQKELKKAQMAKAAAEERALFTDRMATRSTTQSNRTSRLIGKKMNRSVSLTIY

IC50 [1] [µM]	IC50 [2] [µM]	PKMYT1 vs. WEE1 selectivity [2]	IC50 [5] [µM]	SMILES	Selectivity ratio KYSE30 Gl50 vs. OVCAR3 Gl50 [3]	GI50 [4] [µM]
< 0.05	1 to 11	X (100-<1000 fold)	< 0.1	Cc1cn(C(CO)C(=O)N2CCCC2C(F)(F)F)nc1Nc1ncc(C(=O)Nc2c(C)ccc(O)c2C)s1 (stereo not drawn) [BAA-578, 2-((1-(3-hydroxy-1-oxo-1-(2-(trifluoromethyl)pyrrolidin-1-yl)propan-2-yl)-4-methyl-1H-pyrazol-3-yl)amino)-N-(3-hydroxy-2,6-dimethylphenyl)thiazole-5-carboxamide]	Y (>20 fold)	> 5
< 0.05	0.05 to 1	W (10-<100 fold)	< 0.1	Cc1ccc(O)c(C)c1NC(=O)c1cnc(Nc2cc(N3CCN(C)CC3)ncn2)s1 [BAA-581, N-(3-hydroxy-2,6-dimethylphenyl)-2-((6-(4-methylpiperazin-1-yl)pyrimidin-4-yl)amino)thiazole-5-carboxamide]	Y (>20 fold)	> 5
< 0.05	1 to 11	X (100-<1000 fold)	< 0.1	Cc1ccc(O)c(C)c1NC(=O)c1cnc(Nc2nn(CCF)cc2Cl)s1 [BAA-582, 2-((4-chloro-1-(2-fluoroethyl)-1H-pyrazol-3-yl)amino)-N-(3-hydroxy-2,6-dimethylphenyl)thiazole-5-carboxamide]	Y (>20 fold)	0.5 to 5
< 0.05	1 to 11	X (100-<1000 fold)	< 0.1	Cc1cn(C(CO)C(=O)N2CCCC2)nc1Nc1ncc(C(=O)Nc2c(C)ccc(O)c2C)s1 (stereo not drawn) [BAA-583, 2-((1-(3-Hydroxy-1-oxo-1-(pyrrolidin-1-yl)propan-2-yl)-4-methyl-1H-pyrazol-3-yl)amino)-N-(3-hydroxy-2,6-dimethylphenyl)thiazole-5-carboxamide]	Y (>20 fold)	> 5
< 0.05	0.05 to 1	W (10-<100 fold)	0.1 to 1	Cc1cn(CC#N)nc1Nc1ncc(C(=O)Nc2c(C)ccc(O)c2Br)s1 [BAA-584, N-(2-Bromo-3-hydroxy-6-methylphenyl)-2-((1-(cyanomethyl)-4-methyl-1H-pyrazol-3-yl)amino)thiazole-5-carboxamide]	Y (>20 fold)	> 5
< 0.05	1 to 11	X (100-<1000 fold)	< 0.1	Cc1ccc(O)c(C)c1NC(=O)c1cnc(Nc2nn(CCF)cc2Br)s1 [BAA-585, 2-((4-bromo-1-(2-fluoroethyl)-1H-pyrazol-3-yl)amino)-N-(3-hydroxy-2,6-dimethylphenyl)thiazole-5-carboxamide]	Y (>20 fold)	0.5 to 5
< 0.05	0.05 to 1	W (10-<100 fold)	< 0.1	Cc1ccc(O)c(C)c1NC(=O)c1cnc(Nc2nn(CC#N)cc2Br)s1 [BAA-586, 2-((4-bromo-1-(cyanomethyl)-1H-pyrazol-3-yl)amino)-N-(3-hydroxy-2,6-dimethylphenyl)thiazole-5-carboxamide]	X (3-20 fold)	0.5 to 5
< 0.05	1 to 11	X (100-<1000 fold)	< 0.1	Cc1ccc(O)c(C)c1NC(=O)c1cnc(Nc2nn(CC(F)F)cc2Br)s1 [BAA-587, 2-((4-bromo-1-(2,2-difluoroethyl)-1H-pyrazol-3-yl)amino)-N-(3-hydroxy-2,6-dimethylphenyl)thiazole-5-carboxamide]	Y (>20 fold)	0.5 to 5
< 0.05	1 to 11	X (100-<1000 fold)	< 0.1	CCc1cn(CCF)nc1Nc1ncc(C(=O)Nc2c(C)ccc(O)c2C)s1 [BAA-588, 2-((4-ethyl-1-(2-fluoroethyl)-1H-pyrazol-3-yl)amino)-N-(3-hydroxy-2,6-dimethylphenyl)thiazole-5-carboxamide]	Y (>20 fold)	0.5 to 5
< 0.05	1 to 11	X (100-<1000 fold)	< 0.1	CCc1cn(CC(F)F)nc1Nc1ncc(C(=O)Nc2c(C)ccc(O)c2C)s1 [BAA-589, 2-((1-(2,2-difluoroethyl)-4-ethyl-1H-pyrazol-3-yl)amino)-N-(3-hydroxy-2,6-dimethylphenyl)thiazole-5-carboxamide]	Y (>20 fold)	> 5
< 0.05	0.05 to 1	W (10-<100 fold)	< 0.1	CCc1cn(CC#N)nc1Nc1ncc(C(=O)Nc2c(C)ccc(O)c2C)s1 [BAA-590, 2-((1-(cyanomethyl)-4-ethyl-1H-pyrazol-3-yl)amino)-N-(3-hydroxy-2,6-dimethylphenyl)thiazole-5-carboxamide. TFA salt]	Y (>20 fold)	> 5
< 0.05	1 to 11	X (100-<1000 fold)	< 0.1	Cc1cn(C(CO)C(=O)N(C)C2CC2)nc1Nc1ncc(C(=O)Nc2c(C)ccc(O)c2C)s1 (stereo not drawn) [BAA-591, 2-((1-(1-(cyclopropyl(methyl)amino)-3-hydroxy-1-oxopropan-2-yl)-4-methyl-1H-pyrazol-3-yl)amino)-N-(3-hydroxy-2,6-dimethylphenyl)thiazole-5-carboxamide]	Y (>20 fold)	> 5
< 0.05	1 to 11	X (100-<1000 fold)	< 0.1	CCN(C(=O)C(CO)n1cc(C)c(Nc2ncc(C(=O)Nc3c(C)ccc(O)c3C)s2)n1)C1CC1 (stereo not drawn) [BAA-592, 2-((1-(1-(cyclopropyl(ethyl)amino)-3-hydroxy-1-oxopropan-2-yl)-4-methyl-1H-pyrazol-3-yl)amino)-N-(3-hydroxy-2,6-dimethylphenyl)thiazole-5-carboxamide]	Y (>20 fold)	> 5
< 0.05	1 to 11	X (100-<1000 fold)	< 0.1	CCc1c[nH]nc1Nc1ncc(C(=O)Nc2c(C)ccc(O)c2C)s1 [BAA-594, 2-((4-Ethyl-1H-pyrazol-3-yl)amino)-N-(3-hydroxy-2,6-dimethylphenyl)thiazole-5-carboxamide]	Y (>20 fold)	> 5
< 0.05	1 to 11	X (100-<1000 fold)	< 0.1	Cc1cn(CC(=O)N(C)C2CCC2)nc1Nc1ncc(C(=O)Nc2c(C)ccc(O)c2C)s1 [BAA-595, 2-((1-(2-(cyclobutyl(methyl)amino)-2-oxoethyl)-4-methyl-1H-pyrazol-3-yl)amino)-N-(3-hydroxy-2,6-dimethylphenyl)thiazole-5-carboxamide]	Y (>20 fold)	> 5
